Structures are written as SMILES. Where two headings read alike, the source gives them in different places.

The target of data set [1] is T1, NLRP3 (Homo sapiens, UniProt Q96P20).
T1 construct: endogenous in cells
Description: Human whole blood (hWB) NLRP3 assay. The format is cell-based. Particulars: LPS priming 1 μg/ml, ATP activation, read-out: hWB IC50 (raw activity data). On the procedure: Heparin lithium coated tubes were used to collect blood from volunteers. Blood samples were distributed on 96 well plates using 90 μl per well. Priming was performed by adding 5 μl of LPS (O26:B6; Sigma L-2654) at a final concentration of 1 μg/ml for 4.5 hours in a humidified incubator with 37° C., 5% CO2. Thirty minutes prior to NLRP3 activation, 5 μl of a 20× compound solution or vehicle (2% DMSO) was added to each well and plates were incubated on a shaker (450 rpm) in a humidified incubator with 37° C., 5% CO2. Activation was then performed by adding 3.3 μl of a 31×ATP solution per well. At the end of the 30 minutes stimulation, the plates were centrifuged (800 g, 10 min. room temperature) and the plasma from each well was frozen at −80° C. […] levels in the supernatant were analyzed using a mesoscale discovery assay (MSD K151TUK) according to the manufacturers' instructions. Human whole blood was drawn from healthy volunteers after obtaining written informed consent.
Table D assigns each compound a code for potency in the human whole blood (hWB) NLRP3 Assay: A or B. According to the code. […] The corresponding raw activity data is also included.

Data set [2] is described as follows: Brain levels (kp and kpu,u) after oral administration. The format is in vivo, CDI mice. To be noted: mice, 20 mpk PO; for Kp at 24 h / Kpu,u (unbound brain-to-plasma ratio): CDI, mouse, brain / plasma, po, 20 mg/kg; for Kp at 24 h: whole brain AUC over 24 h divided by plasma AUC; for Kpu,u (unbound brain-to-plasma ratio) / kpu,u (code): kp corrected with mouse plasma protein binding and mouse brain homogenate binding. The procedure:
The in vivo total brain to plasma ratio was assessed in CDI mice after oral administration of the compound. Blood was collected at several timepoints up to 24 h, and transferred into plastic micro centrifuge tubes with EDTA-K2 as anticoagulant. Blood samples were centrifuged at 4000 g for 5 minutes at 4° C. to obtain plasma, then immediately frozen and stored at −75±15° C. prior to analysis. Animals were terminally anaesthetized with a rising concentration of CO2 gas at about 1 minute. At selected timepoints, whole brains were removed from the skull, rinsed in cold PBS to remove blood, dried with clean gauze, then frozen in liquid nitrogen and kept at −75±15° C. before analysis. At the time of analysis, brain samples were homogenized with PBS by tissue weight (g) to PBS volume (mL) ratio 1:3. Plasma and brain drug levels were quantified by LC/MS/MS on a AB Sciex Triple Quad 5500+ instrument, after separation on a HALO 160A ES-C18, 2.7 μm 2.1-50 mm column. Quantitation was performed using a calibration curve prepared in blank plasma or blank brain homogenate. The software WinNonlin (Phoenix™) was used for pharmacokinetic analysis from the concentrations versus time data, including the AUCinf and AUClast. The Kp ratio (total brain concentration over total plasma concentration) was calculated as (AUCtot,br)/(AUCtot,pl).
The unbound brain exposure was assessed as Kpuu, which is the free brain/free plasma concentration ratio (Cu,br/Cu,pl). The Cu,br/Cu,pl ratios were obtained from in vivo total brain to plasma ratios (Ctot,br/Ctot,pl) by using in vitro determined Fu,br and Fu,pl.
Plasma protein binding and brain homogenate protein binding were measured by equilibrium dialysis in a HTDialysis plate. The dialysis membranes were soaked in ultrapure water for 60 minutes to separate strips, then in 20% ethanol for 20 minutes, finally in dialysis buffer for 20 minutes. The dialysis set up was assembled according to the manufacturer's instruction. Each cell received 150 μL of plasma or brain homogenate spiked with 1 mM of compound, and dialyzed against an equal volume of dialysis buffer (PBS). The dialysis plate was sealed and incubated in an incubator at 37° C. with 5% CO2 at 100 rpm for 6 hours. At the end of incubation, compound concentration was measured in both chambers by LC-MS/MS on a Triple Quad™ 5500 from AB Inc after separation on a XSelect Hss T3 2.5μ (2.1×30 mm) column. Free fraction (Fu) was calculated as (Peak Area Ratio buffer chamber/Peak Area Ratio plasma chamber).
Kpuu was calculated as (AUCtot,br×Fu,br)/(AUCtot,pl×Fu,pl).
The below table also assigns each compound a code for kp and kpu,u values: A or B. According to the code. A represents a value of >0.3 and B represents a value of ≤0.3. […] The kpu,u was then calculated upon correcting this kp value with mouse plasma protein binding and mouse brain homogenates binding. A Kpu,u value >0.3 is brain penetrant, and Kpu,u value less than or equal to 0.3 is not brain penetrant. N.D.=not determined. The corresponding raw kp and kpu,u data is also included.

T1 sequence (Q96P20 whole entry): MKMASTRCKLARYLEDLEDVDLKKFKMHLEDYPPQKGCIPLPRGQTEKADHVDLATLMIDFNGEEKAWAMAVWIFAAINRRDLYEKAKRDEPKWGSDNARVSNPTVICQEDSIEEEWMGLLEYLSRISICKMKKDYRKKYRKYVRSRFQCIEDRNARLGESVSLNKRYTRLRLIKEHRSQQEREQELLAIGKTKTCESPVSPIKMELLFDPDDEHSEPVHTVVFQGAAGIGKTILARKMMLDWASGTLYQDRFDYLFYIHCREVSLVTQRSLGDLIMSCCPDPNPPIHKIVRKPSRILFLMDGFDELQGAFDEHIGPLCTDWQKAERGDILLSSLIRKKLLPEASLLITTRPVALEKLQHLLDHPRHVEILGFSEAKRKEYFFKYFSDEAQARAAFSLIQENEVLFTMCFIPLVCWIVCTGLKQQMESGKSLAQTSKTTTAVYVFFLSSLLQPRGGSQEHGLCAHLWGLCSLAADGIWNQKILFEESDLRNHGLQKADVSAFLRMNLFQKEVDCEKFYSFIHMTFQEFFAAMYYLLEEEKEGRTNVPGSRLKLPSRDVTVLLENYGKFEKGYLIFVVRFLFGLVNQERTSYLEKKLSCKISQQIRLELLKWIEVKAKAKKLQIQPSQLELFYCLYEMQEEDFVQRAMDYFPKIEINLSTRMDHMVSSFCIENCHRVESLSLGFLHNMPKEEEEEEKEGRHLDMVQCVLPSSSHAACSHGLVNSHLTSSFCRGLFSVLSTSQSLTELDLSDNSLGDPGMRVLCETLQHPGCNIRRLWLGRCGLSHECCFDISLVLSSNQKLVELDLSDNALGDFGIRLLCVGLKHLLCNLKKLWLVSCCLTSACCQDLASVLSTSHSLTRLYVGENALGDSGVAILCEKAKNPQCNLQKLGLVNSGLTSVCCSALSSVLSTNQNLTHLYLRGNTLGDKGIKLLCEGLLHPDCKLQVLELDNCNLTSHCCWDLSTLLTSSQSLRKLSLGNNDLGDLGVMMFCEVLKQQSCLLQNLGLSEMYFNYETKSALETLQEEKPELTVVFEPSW

As for `CC1(C)COC[C@@H]1Nc1nnc(-c2ccc(Cl)cc2O)c2ccncc12` (single isomer, unassigned) [Compound 1*], the IC50 in data set [1] came out at 1 µM. The Kp at 24 h in data set [2] (read-out: kp (code)) is > 0.3. Besides, in data set [2] (read-out: kp (raw)), the Kp at 24 h was found to be 0.9. Moreover, in data set [2], the Kpu,u (unbound brain-to-plasma ratio) was 0.31 and the “kpu,u (code)” value is on record as “A (A represents a value of >0.3)”.

As to `CC1(C)COC[C@H]1Nc1nnc(-c2ccc(Cl)cc2O)c2ccncc12` (single isomer, unassigned) [Compound 1B*], in data set [1], the IC50 was 1.8 µM.

For the compound `CC1(C)COCC[C@@H]1Nc1nnc(-c2ccc(Cl)cc2O)c2ccncc12` (single isomer, unassigned) [Compound 3*], the IC50 in data set [1] came to 0.19 µM. Besides, the Kp at 24 h in data set [2] (read-out: kp (code)) was > 0.3; in data set [2] (read-out: kp (raw)), 0.58. Besides, the Kpu,u (unbound brain-to-plasma ratio) in data set [2] stood at 2.2. Also, the “kpu,u (code)” value in data set [2] is reported as “A (A represents a value of >0.3)”.

On to `CC1(C)COCC[C@H]1Nc1nnc(-c2ccc(Cl)cc2O)c2ccncc12` (single isomer, unassigned) [Compound 3B*], for which, in data set [1], the IC50 was 11 µM.

For the compound `CC1(C)C[C@@H](Nc2nnc(-c3ccc(Cl)cc3O)c3ccncc23)CCO1` (single isomer, unassigned) [Compound 4*], in data set [1], the IC50 was determined as 0.66 µM. Moreover, the Kp at 24 h in data set [2] (read-out: kp (code)) was > 0.3. Besides, in data set [2] (read-out: kp (raw)), the Kp at 24 h stood at 0.81. Also, in data set [2], the Kpu,u (unbound brain-to-plasma ratio) came to 0.89 and the “kpu,u (code)” value is on record as “A (A represents a value of >0.3)”.

In the case of `CC1(C)C[C@H](Nc2nnc(-c3ccc(Cl)cc3O)c3ccncc23)CCO1` (single isomer, unassigned) [Compound 4B*], in data set [1], the IC50 came out at 1.7 µM.

For `CN1CCO[C@@H](CNc2nnc(-c3ccc(C(F)(F)F)cc3O)c3ccncc23)C1` (single isomer, unassigned) [Compound 6*], the IC50 in data set [1] turned out to be 0.43 µM. Also, in data set [2] (read-out: kp (code)), the Kp at 24 h was > 0.3. Further, in data set [2] (read-out: kp (raw)), the Kp at 24 h was 0.66. In data set [2], the Kpu,u (unbound brain-to-plasma ratio) amounted to 2.3 and the “kpu,u (code)” value is “A (A represents a value of >0.3)”.

With `CN1CCO[C@H](CNc2nnc(-c3ccc(C(F)(F)F)cc3O)c3ccncc23)C1` (single isomer, unassigned) [Compound 6B*], the IC50 in data set [1] was found to be 1.26 µM.

For `Oc1cc(Cl)ccc1-c1nnc(N[C@H]2CCOC2)c2cnccc12` (single isomer, unassigned) [Compound 7*, reference compound], the 50% inhibitory concentration (IC50) in data set [1] was 0.8 µM. Besides, in data set [2] (read-out: kp (code)), the Kp at 24 h is ≤ 0.3. The Kp at 24 h in data set [2] (read-out: kp (raw)) turned out to be 0.13. For the same compound, in data set [2], the Kpu,u (unbound brain-to-plasma ratio) was found to be 0.15 and the “kpu,u (code)” value is on record as “B (B represents a value of ≤0.3)”.

As for `Cc1ccc(-c2nnc(N[C@H]3CCC(C)(C)OC3)c3cnccc23)c(O)c1` (single isomer, unassigned) [Compound 10*], in data set [1], the IC50 was determined as 1.4 µM. Also, the Kp at 24 h in data set [2] (read-out: kp (code)) was > 0.3; in data set [2] (read-out: kp (raw)), 0.35. Also, the Kpu,u (unbound brain-to-plasma ratio) in data set [2] turned out to be 0.51. Also, in data set [2], the “kpu,u (code)” value is on record as “A (A represents a value of >0.3)”.

In the case of `Cc1ccc(-c2nnc(N[C@@H]3CCC(C)(C)OC3)c3cnccc23)c(O)c1` (single isomer, unassigned) [Compound 10B*], the IC50 in data set [1] amounted to 7.9 µM.

`CC1(C)C[C@@H](Nc2nnc(-c3ccc(C(F)(F)F)cc3O)c3ccncc23)CCO1` (single isomer, unassigned) [Compound 11*]: the IC50 in data set [1] was 1.4 µM. The Kp at 24 h in data set [2] (read-out: kp (code)) was > 0.3. Also, the Kp at 24 h in data set [2] (read-out: kp (raw)) worked out at 0.96. Also, in data set [2], the Kpu,u (unbound brain-to-plasma ratio) is 1.3 and the “kpu,u (code)” value is recorded as “A (A represents a value of >0.3)”.

Consider `CC1(C)C[C@H](Nc2nnc(-c3ccc(C(F)(F)F)cc3O)c3ccncc23)CCO1` (single isomer, unassigned) [Compound 11B*], for which the IC50 in data set [1] came to 10 µM.

In the case of `Cc1ccc(-c2nnc(N[C@@H]3COC(C)(C)C3)c3cnccc23)c(O)c1F` (single isomer, unassigned) [Compound 12B], the IC50 in data set [1] was found to be 3.2 µM.

With `Cc1ccc(-c2nnc(N[C@@H]3CCOCC3(C)C)c3cnccc23)c(O)c1` (single isomer, unassigned) [Compound 13B], the IC50 in data set [1] turned out to be 9.8 µM.

On to `Cc1ccc(-c2nnc(N[C@@H]3CCOC(C)(C)C3)c3cnccc23)c(O)c1` (single isomer, unassigned) [Compound 14B], for which, in data set [1], the IC50 is 3.6 µM.

Take `CC1(C)COCC[C@H]1Nc1nnc(-c2ccc(C(F)(F)F)cc2O)c2ccncc12` (single isomer, unassigned) [Compound 15B]: the IC50 in data set [1] worked out at 18 µM.

On to `CC1(C)C[C@H](Nc2nnc(-c3ccc(C(F)F)cc3O)c3ccncc23)CCO1` (single isomer, unassigned) [Compound 16B*], for which, in data set [1], the IC50 is 12 µM.

Consider `CC1(C)COCC[C@H]1Nc1nnc(-c2ccc(C(F)F)cc2O)c2ccncc12` (single isomer, unassigned) [Compound 17B], for which the IC50 in data set [1] turned out to be 2.4 µM.

On to `C[C@H]1COCC[C@@H]1Nc1nnc(-c2ccc(Cl)cc2O)c2ccncc12` (single isomer, unassigned) [Compound 18C*], for which, in data set [1], the IC50 was found to be 1.2 µM.

Regarding `C[C@@H]1COCC[C@@H]1Nc1nnc(-c2ccc(Cl)cc2O)c2ccncc12` (single isomer, unassigned) [Compound 18D*], the IC50 in data set [1] was 6.2 µM.

On to `Oc1cc(C(F)(F)F)ccc1-c1nnc(N[C@@H]2COC3(CC3)C2)c2cnccc12` (single isomer, unassigned) [Compound 19B], for which the concentration for half-maximal inhibition (IC50) in data set [1] is 1.2 µM.

`CC1(C)CC[C@@H](Nc2nnc(-c3ccc(C(F)F)cc3O)c3ccncc23)CO1` (single isomer, unassigned) [Compound 20B]: the IC50 in data set [1] is 3.4 µM.

In the case of `Cc1cc(O)c(-c2nnc(N[C@@H]3COC(C)(C)C3)c3cnccc23)c(F)c1` (single isomer, unassigned) [Compound 21B], the IC50 in data set [1] was 2.3 µM.

In the case of `CC1(C)OCC[C@@H]1Nc1nnc(-c2ccc(C(F)(F)F)cc2O)c2ccncc12` (single isomer, unassigned) [Compound 22B], in data set [1], the IC50 was found to be 5.9 µM.

With `CC1(C)C[C@H](Nc2nnc(-c3ccc(C(F)F)cc3O)c3ccncc23)CO1` (single isomer, unassigned) [Compound 23B], the Kp at 24 h in data set [2] (read-out: kp (code)) is ≤ 0.3. In addition, the Kp at 24 h in data set [2] (read-out: kp (raw)) stood at 0.28. In data set [2], the Kpu,u (unbound brain-to-plasma ratio) was found to be 0.09 and the “kpu,u (code)” value was “B (B represents a value of ≤0.3)”.

Consider `C[C@H]1C[C@@H](Nc2nnc(-c3ccc(Cl)cc3O)c3ccncc23)CCO1` (single isomer, unassigned) [Compound 25B*], for which the IC50 in data set [1] was found to be 0.85 µM.

With `Cc1cc(O)c(-c2nnc(N[C@@H]3COC(C)(C)C3)c3cnccc23)c(Cl)c1` (single isomer, unassigned) [Compound 26B*], the IC50 in data set [1] came out at 1.3 µM.

With `Cc1ccc(-c2nnc(N[C@@H]3COC(C)(C)C3)c3cnccc23)c(O)c1` [Compound 5B, (S)-2-(4-((5,5-dimethyltetrahydrofuran-3-yl)amino)pyrido[3,4-d]pyridazin-1-yl)-5-methylphenol], the IC50 in data set [1] was 0.21 µM.

The term IC50 denotes the concentration needed to halve the response being measured. In general, Kp refers to the ratio of the level in a tissue or fluid to that in plasma or blood.
